From US9737517B2, “Pharmaceutical use of hexahydro-dibenzo[a,g]quinolizine compounds” (SHANGHAI INSTITUTE OF MATERIA MEDICA, CHINESE ACADEMY OF …, priority 2013, dated 2017)

Tests used:
[1] = biological target: T1, α1B-AR (Homo sapiens, UniProt P35368); test: Calcium mobilization (Fluo-4) antagonism of phenylephrine in HEK293 cells expressing α1B-AR/Gα16; type: cell-based; conditions: phenylephrine 30 nM
T1 construct: expressed in transfected cells; host or cells: HEK293
T1 sequence (P35368 1-520): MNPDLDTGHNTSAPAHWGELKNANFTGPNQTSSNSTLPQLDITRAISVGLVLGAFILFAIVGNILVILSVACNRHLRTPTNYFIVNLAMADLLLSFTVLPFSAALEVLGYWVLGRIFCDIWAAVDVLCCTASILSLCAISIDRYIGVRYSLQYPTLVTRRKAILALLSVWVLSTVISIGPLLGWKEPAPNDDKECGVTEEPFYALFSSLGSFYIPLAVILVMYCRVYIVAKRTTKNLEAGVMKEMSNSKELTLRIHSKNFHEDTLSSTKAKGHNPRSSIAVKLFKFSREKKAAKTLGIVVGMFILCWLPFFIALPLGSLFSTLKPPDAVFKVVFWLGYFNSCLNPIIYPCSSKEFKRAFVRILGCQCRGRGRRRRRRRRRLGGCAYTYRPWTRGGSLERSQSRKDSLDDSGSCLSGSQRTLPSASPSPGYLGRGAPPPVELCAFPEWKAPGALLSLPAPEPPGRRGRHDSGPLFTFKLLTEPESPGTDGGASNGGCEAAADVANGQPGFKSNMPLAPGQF
Method: (§1) HEK293 cells stably expressing α1A-AR/Gα16, α1B-AR/Gα16, α1D-AR/Gα16 were seeded in a 96-well plate, and cultured for 24 hours. Then the medium was removed and 40 μL Hank's balanced salt solution (HBSS: containing 5.4 mM KCl, 0.3 mM Na2HPO4, 0.4 mM KH2PO4, 4.2 mM NaHCO3, 1.3 mM CaCl2, 0.5 mM MgCl2, 0.6 mM MgSO4, 137 mM NaCl, 5.6 mM D-glucose, and 250 μM sulfinpyrazone, pH 7.4) containing 2 μM Fluo-4 AM was added into each well, and incubated at 37° C. for 45 min. Dye was removed and 50 μL of HBSS containing either test compound or 1% DMSO (negative control) was added. After incubation at room temperature for 10 min, Flex Station 3 microplate reader was used to read the value. At specified time points, 25 μL of agonist (phenylephrine, final concentration 30 nM) was dispensed into the well automatically using the reader and fluorescence intensity change of dye caused by intracellular calcium concentration change was detected at an excitation wavelength of 485 nm and an emission wavelength of 525 nm.
(§2) After incubation with different drugs, the reaction rate of cells to 1-AR agonist phenylephrine was calculated as follows: Reaction rate %=(D−B)/(S−B)*100%;
(§3) The reaction rate of the same drug at different doses was tested using GraphPad Prism software by non-linear regression analysis, and the dose-response curve was obtained and IC50 values was measured. Data were obtained from three separate experiments, and each experiment included three duplicate wells.

[2] = test system: BPH Rat model; test: Pharmacodynamic experiment in BPH rat model (testosterone propionate), urination after water load; type: in vivo, SD rats; conditions: BPH model rats; for frequency of urination, single urine output: relation to dose: 3 doses, water load 30 mL/kg
Method: Establishing of BPH Rat model: 6-week-old male SD rats (n=49) (body weight about 200 g), in which 37 rats were BPH model group and daily injected testosterone propionate subcutaneously, and the other 12 rats were Sham group and injected olive oil, for 4 weeks. After 4 weeks, 49 rats received gavage in a dosage of 30 mL/kg of water, and urination for each rat was observed and recorded (recording each urine output and frequency of urination within two hours).
According to the above verification results, rats having abnormal urination were firstly excluded. Then, the normal BPH model rats were divided into 2 groups, 12 rats every group, and 12 rats of Sham group were singled out as control group. Grouping principles were as follows: there were significant differences of body weight, frequency of urination within two hours, single urine output and the total amount of urination between the two groups of BPH model and Sham group, and there were no significant differences between the two groups of BPH model.
Efficacy verification experiment. The experiment had seven groups: Sham group, silodosin group (BPH-1,3-group dose) and DC037009 group (BPH-2,3-group dose). Rats received gavage in a dosage of 5 mL/kg and each dose of the compound dissolved with CMCNa. After 20 min, the rats received gavage in a dosage of 30 mL/kg water. The study time interval of different doses of the same compound was over 24 hours.

[3] = biological target: T2, α1A-AR (Homo sapiens, UniProt P35348); test: Calcium mobilization (Fluo-4) antagonism of phenylephrine in HEK293 cells expressing α1A-AR/Gα16; type: cell-based; conditions: for IC50: HEK293 α1A-AR/Gα16, calcium mobilization, phenylephrine 30 nM; for α1B/α1A: ratio of cell IC50 values, calcium mobilization
T2 construct: expressed in transfected cells; host or cells: HEK293
T2 sequence (P35348 1-466): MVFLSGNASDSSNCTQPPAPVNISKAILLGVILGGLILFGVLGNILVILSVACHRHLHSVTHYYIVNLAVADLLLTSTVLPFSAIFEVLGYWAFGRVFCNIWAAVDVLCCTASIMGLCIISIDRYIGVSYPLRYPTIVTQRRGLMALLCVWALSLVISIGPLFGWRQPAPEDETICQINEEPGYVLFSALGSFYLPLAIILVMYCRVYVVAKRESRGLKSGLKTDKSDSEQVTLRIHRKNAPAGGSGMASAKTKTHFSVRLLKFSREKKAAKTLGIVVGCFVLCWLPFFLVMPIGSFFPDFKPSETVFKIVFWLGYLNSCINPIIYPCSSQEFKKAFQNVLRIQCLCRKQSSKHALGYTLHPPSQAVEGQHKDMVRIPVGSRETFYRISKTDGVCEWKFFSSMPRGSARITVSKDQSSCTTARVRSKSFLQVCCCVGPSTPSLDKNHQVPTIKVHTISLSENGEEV
Method: as §1, §2, §3

[4] = test system: SD rats; test: Phenylephrine-induced intraurethral pressure (IUP) and arterial blood pressure (MBP) elevation in anesthetized rats; type: in vivo; conditions: anesthetized male SD rats; for inhibition of phenylephrine-induced intraurethral pressure (IUP) elevation / inhibition of phenylephrine-induced peripheral arterial blood pressure (MBP) elevation: intraduodenal administration
Excerpt: Male SD rats (200-450 g) were anesthetized with an i.p. administration of urethane (1.25 g/kg). The urinary bladder, prostate, and urethra were exposed through an abdominal midline and symphysis pubica incision. A catheter was placed into the prostatic urethra through the bladder dome and secured at bladder neck (vesico-urethral junction) with a silk suture. The distal urethra under pubica was closed. The other side of the catheter was connected to a pressure transducer to measure the intraurethral pressure (IUP). After separating the duodenum and cutting open at about 2 cm from the stomach pylorus, intubating and performing purse-string suture, the test sample was supplied. Then, the median carotid incision was performed, carotid artery was separated, and the arterial blood pressure was measured by pressure transducer connected to artery cannula. Be careful not to hurt the nerves and blood vessels throughout the procedure. After surgery, a small amount (0.1˜0.2 mL) of saline was injected to balance the intraurethral pressure at around 10 cm of water. Then an intravenous injection at a concentration of 30 μg/mL of […] 1 mL/kg was performed before administration and 5 min, 30 min, 1 h, 1.5 h, 2 h, 3 h after administration to induce intraurethral pressure elevation. (If the effect was stable or weakened, then the experiment was ended.) The changes of intraurethral pressure and blood pressure induced by phenylephrine in rats were observed and recorded at different time points before and after administration.

[5] = under certain total urine output

SMILES: COc1cc2c(cc1OC)CN1CCc3cc4c(cc3[C@@H]1C2)OCO4 [DC037009, S-(−)-2,3-methylenedioxy-10,11-dimethoxy-5,8,13,13a-tetrahydro-6H-dibenzo[a,g]quinolizine]
- IC50 [1]: 5210 nM
- efficacy compared with positive drug ([2]; gavage): comparable to the positive drug
- onset dose ([2]; gavage): 1 mg/kg
- frequency of urination, single urine output: relation to dose ([2]; gavage): dose-dependent relationship
- frequency of urination [2, 5]: reduce frequency of urination
- single urine output [2, 5]: significantly increase
- IC50 [3]: 29.8 nM
- α1B/α1A [3]: 175
- selectivity to urethra (rank order) ([4]; IUP versus MBP): DC037009>Silodosin
- onset dose compared with silodosin [4]: significantly lower than that of positive drug silodosin
- rank order of inhibition of phenylephrine-induced blood pressure elevation [4]: Silodosin>DC037009
- rank order of inhibition of phenylephrine-induced intraurethral pressure elevation [4]: DC037009>Silodosin
- inhibition of phenylephrine-induced intraurethral pressure (IUP) elevation [4]: dose-dependently inhibit
- inhibition of phenylephrine-induced peripheral arterial blood pressure (MBP) elevation [4]: dose-dependently inhibit

SMILES: COc1cc2c(cc1OCc1ccccc1)C[C@H]1c3cc4c(cc3CCN1C2)OCO4 [DC037016]
- IC50 [1]: 4250 nM
- IC50 [3]: 34.8 nM
- α1B/α1A [3]: 122

SMILES: C[C@H](Cc1cc2c(c(C(N)=O)c1)N(CCCO)CC2)NCCOc1ccccc1OCC(F)(F)F [Silodosin, reference compound]
- frequency of urination, single urine output: relation to dose ([2]; gavage): dose-dependent relationship
- inhibition of phenylephrine-induced intraurethral pressure (IUP) elevation [4]: dose-dependently inhibit
- inhibition of phenylephrine-induced peripheral arterial blood pressure (MBP) elevation [4]: dose-dependently inhibit
